Assay results reported in ChEMBL document CHEMBL3046708, “The effect of pyridazine compounds on the cardiovascular system” (Med Chem Res, 2012).

What was measured:
Sus scrofa [1] = assay: Cardiotonic activity in iv dosed Sus scrofa (pig) assessed as change in left ventricular filling pressure administered as infusion; type: functional, Heart left ventricle
Sus scrofa [2] = assay: Cardiotonic activity in iv dosed Sus scrofa (pig) assessed as change in heart rate administered as infusion; type: functional
Sus scrofa [3] = assay: Cardiotonic activity in iv dosed Sus scrofa (pig) assessed as change in left ventricular systolic pressure administered as infusion; type: functional, Heart left ventricle
Sus scrofa [4] = assay: Cardiotoxicity in Sus scrofa (pig) assessed as increase in maximum rate of rise of left ventricular pressure at 2.5 to 25 ug/kg/min administered as 10 min infusion; type: toxicity, organism-based, Heart left ventricle; conditions: in vivo, iv
Sus scrofa [5] = assay: Cardiotoxicity in iv dosed Sus scrofa (pig) assessed as effect on maximum rate of rise of left ventricular pressure administered as infusion; type: toxicity, organism-based, Heart left ventricle; conditions: in vivo
Sus scrofa [6] = assay: Cardiotoxicity in Sus scrofa (pig) assessed as increase in maximum rate of rise of left ventricular pressure at 0.05 to 0.5 ug/kg/min administered as 10 min infusion; type: toxicity, organism-based, Heart left ventricle; conditions: in vivo, iv

Row | Structure (SMILES) | Activity (Sus scrofa [1]) [%] | Activity (Sus scrofa [2]) [%] | Activity (Sus scrofa [3]) [%] | Activity (Sus scrofa [4]) [%] | Activity (Sus scrofa [5]) [%] | Activity (Sus scrofa [6]) [%]
1 | COc1ccc(-c2nc3ccc(C4=NNC(=O)CC4C)cc3[nH]2)cc1 (stereo unspecified) [PIMOBENDAN] | -20 | 10 | -5 | 85 | 10 | –
2 | COC(=O)C1=C(C)NC(C)=C(C(=O)OCC(C)C)C1c1ccccc1[N+](=O)[O-] (stereo unspecified) [NISOLDIPINE] | – | – | – | – | – | 45
